Measurements: a compilation of properties of binary mixtures (doi:10.1016/j.molliq.2022.118955)
Blank lines part the entries; values can stand above or below the compound they belong to.

Experiment: xn = mol fraction of the nth substance listed
Conditions: 298.15 K, 100 kPa

electrical conductivity (x2 = 0): 0.0001 S/m
Structure (SMILES): CCO + CC[n+]1ccn(C)c1.[I-]

electrical conductivity (x1 = 0.0198): 0.493 S/m
electrical conductivity (x1 = 0.0392): 0.821 S/m
electrical conductivity (x1 = 0.0676): 1.2 S/m
electrical conductivity (x1 = 0.148): 1.69 S/m
electrical conductivity (x1 = 0.2876): 1.53 S/m
electrical conductivity (x1 = 0.4094): 1.1 S/m
electrical conductivity (x1 = 1): 0.0522 S/m
Structure (SMILES): CCCC[n+]1ccn(C)c1.[I-] + CCO

electrical conductivity (x1 = 0.0104): 0.33 S/m
electrical conductivity (x1 = 0.0208): 0.581 S/m
electrical conductivity (x1 = 0.0477): 1.15 S/m
electrical conductivity (x1 = 0.0766): 1.62 S/m
electrical conductivity (x1 = 0.1141): 2.09 S/m
electrical conductivity (x1 = 0.1621): 2.51 S/m
electrical conductivity (x1 = 0.2282): 2.75 S/m
electrical conductivity (x1 = 0.3112): 2.76 S/m
Structure (SMILES): CC[n+]1ccn(C)c1.[I-] + CCO
